{"source": "paper PMC8159111", "about": "(Pathogens, 2021)", "assay_type_in_all_cases": "cell-based", "key": {"[1]": {"test": "Cytotoxicity (CC50) determination, crystal violet assay", "settings": "African green monkey, Vero E6 cells, Table 4 prints no unit, Figure 4 prints μM, read-out: CC50 (half-maximal cytotoxic concentration)", "procedure": "To assess the half maximal cytotoxic concentration (CC50), stock solutions of the test compounds were prepared in 10% DMSO in ddH2O and diluted further to the working solutions with DMEM. The cytotoxic activity of the extracts was tested in VERO-E6 cells by using crystal violet assay as previously described with minor modifications. Briefly, the cells were seeded in 96-well plates (100 µL/well at a density of 3 × 10^5 cells/mL) and incubated for 24 h at 37 °C in a humidified 5% CO2 incubator. After 24 h, cells were treated with various concentrations of the tested compounds in triplicates. Seventy two hours later, the supernatant was discarded, and cell monolayers were fixed with 10% formaldehyde for 1 h at room temperature (RT). The fixed monolayers were then dried and stained with 50 µL of 0.1% crystal violet for 20 min on a bench rocker at RT. The monolayers were then washed, dried and the crystal violet dye in each well was then dissolved with 200 µL of methanol for 20 min on a bench rocker at RT. The absorbance of crystal violet solutions was measured at λmax 570 nm as a reference wavelength using a multi-well plate reader."}, "[2]": {"test_system": "SARS-CoV-2 \"NRC-03-nhCoV\" virus", "test": "Inhibitory concentration 50 (IC50) determination, reduction of virus-induced cytopathic effect in Vero-E6 cells", "settings": "Severe acute respiratory syndrome coronavirus 2, Vero C1008, 72 h, against NRC-03-nhCoV in Vero E6, 72 h, CPE reduction, crystal violet; unit not given in Table 4 and Figure 6, Figure 4 and text print μM; read-out: IC50 (half-maximal inhibitory concentration)", "procedure": "The IC50 values for the tested compounds were determined as previously described, with minor modifications. Briefly, in 96-well tissue culture plates, 2.4 × 10^4 Vero-E6 cells were distributed in each well and incubated overnight at a humidified 37°C incubator under 5% CO2 condition. The cell monolayers were then washed once with 1× PBS. An aliquot of the SARS-CoV-2 “NRC-03-nhCoV” virus containing 100 TCID50 was incubated with serial diluted compounds and kept at 37 °C for 1 h. The Vero-E6 cells were treated with virus/compound mix and co-incubated at 37 °C in a total volume of 200 µL per well. Untreated cells infected with virus represented the virus control; however, cells that were not treated and not infected were the cell control. Following incubation at 37 °C in 5% CO2 incubator for 72 h, the cells were fixed with 100 μL of 10% paraformaldehyde for 20 min and stained with 0.5% crystal violet in distilled water for 15 min at RT. The crystal violet dye was then dissolved using 100 μL of absolute methanol per well and the optical density of the color was measured at 570 nm using the Anthos Zenyth 200 rt plate reader (Anthos Labtec Instruments, Heerhugowaard, the Netherlands)."}, "[3]": {"test_system": "MERS-CoV virus \"NRCE-HKU270\"", "test": "microbe, parasite or virus in culture", "settings": "Middle East respiratory syndrome-related coronavirus, Vero C1008, read-out: IC50 (half-maximal inhibitory concentration)"}, "[4]": {"test_system": "NRC-03-nhCoV (SARS-CoV-2) in Vero-E6 cells", "test": "Mode of antiviral action, plaque infectivity reduction assay (adsorption, replication, virucidal)", "procedure": "To investigate whether the tested compound with high selectivity index and antiviral activity against NRC-03-nhCoV affect (a) viral adsorption, (b) viral replication or (c) viricidal effect, a plaque infectivity reduction assay was performed according to the following protocols: • (a) Viral adsorption mechanism\nThe viral adsorption mechanism was assayed according to a protocol by Zhang et al. with minor modifications. Vero-E6 cells were cultivated in a 6-well plate (10^5 cells/mL) for 24 h at 37 °C. Each tested drug was applied in 500 µL of medium without supplements and co-incubated with the cells for 2 h at 4 °C. The non-absorbed drug in the applied inocula was removed by washing cells three times with 1x PBS. The NRC-03-nhCoV was diluted to a countable range “10^−4” and co-incubated with the pretreated cells. About 1 h post-incubation, the inocula were removed and 3 mL of agarose overlay (1:1 mixture of warmed 2× plaque media and a stock solution of heated 2% agarose) were added. The plates were kept at room temperature to solidify and then incubated at 37 °C to allow the formation of viral plaques. The plaques were fixed using 10% formaldehyde, stained using crystal violet (1% crystal violet in 20% ethanol and distilled H2O), washed with rinse water and dried to calculate the percentage reduction in plaque formation compared to control wells, which comprised untreated Vero-E6 cells directly infected with NRC-03-nhCoV.\nThe impact of the tested drug on viral replication was determined as previously described. Vero-E6 cells were cultivated in a 6-well plate (10^5 cell/mL) for 24 h at 37 °C. The NRC-03-nhCoV of the countable range was inoculated directly to the cells and incubated for 1 h at 37 °C. The inocula containing the non-adsorbed virus were removed by washing infected cell monolayers three times with 1× PBS. The analyzed compound was then applied in varying concentrations to infected cells for another 1 h contact time at 37 °C. After removing the inocula containing the tested drug, agarose overlay were added to the cells. […]"}}, "data": [{"smiles": "CC1(C)CCC2(C(=O)OCc3cc(-c4ccc(Cl)cc4)no3)CCC3(C)C(=CCC4C5(C)CC(O)C(O)C(C)(C)C5CCC43C)C2C1", "note": "(stereo not drawn) [Compound 17, (3-(4-chlorophenyl)isoxazol-5-yl) methyl-(2α,3β)-2,3-dihydroxyolean-12-en-28-oate]", "values": [{"measurement": "CC50 at 72 h", "setting": "[1]", "result": 142, "unit": "µM"}, {"measurement": "IC50", "setting": "[2]", "result": 4.12, "unit": "µM"}, {"measurement": "IC50", "setting": "[3]", "result": 6.25, "unit": "µM"}, {"measurement": "effect on viral adsorption", "setting": "[4]; Vero-E6 cells pretreated with compound 2 h at 4 °C", "result": "efficiently impair viral replication and adsorption"}, {"measurement": "effect on viral replication", "setting": "[4]; compound applied to infected Vero-E6 cells after adsorption", "result": "efficiently impair viral replication"}, {"measurement": "virucidal effect", "setting": "[4]; virus mixed with compound 1 h before infection of Vero-E6", "result": "virucidal effect"}]}]}
